# Literature values in US20180169172A1, “COMPOUND AND METHOD FOR REDUCING APPETITE, FATIGUE AND PAIN” (priority 2018, published 2018).
# Read-outs that look alike come from different tables or passages of the source.
# Tests used:
# [1] = test system: gastrointestinal transit; conditions: subcutaneous, mice
# [2] = target: μ-subtype opioid receptor (MOR) (Homo sapiens, UniProt P35372)
# [3] = test system: mice; conditions: even upon oral administration
# [4] = test system: pain; conditions: by mouth, immediate-release formulation
# [5] = not given; remark: listed apart in the source
# [6] = test system: rodents; conditions: dose levels of 800-900 mg/kg in rodents
# [7] = test system: rats; conditions: 200 mg/kg in rats; mitragynine given orally
# [8] = not given; remark: listed apart in the source
# [9] = test system: Kratom users; conditions: even after chronic and high dosage consumption
# [10] = test system: compound nerve action potential; conditions: 2 mg/mL
# [11] = not given; remark: listed apart in the source
# [12] = test system: skeletal muscle; conditions: rat, in vivo
# [13] = test system: gastric acid secretion
# [14] = test system: animal; conditions: animal studies, versus codeine
# [15] = microplate reader determination
# [16] = nine subjects, oral Kratom tea, loading dose
# Chain of μ-subtype opioid receptor (MOR) (P35372 whole entry): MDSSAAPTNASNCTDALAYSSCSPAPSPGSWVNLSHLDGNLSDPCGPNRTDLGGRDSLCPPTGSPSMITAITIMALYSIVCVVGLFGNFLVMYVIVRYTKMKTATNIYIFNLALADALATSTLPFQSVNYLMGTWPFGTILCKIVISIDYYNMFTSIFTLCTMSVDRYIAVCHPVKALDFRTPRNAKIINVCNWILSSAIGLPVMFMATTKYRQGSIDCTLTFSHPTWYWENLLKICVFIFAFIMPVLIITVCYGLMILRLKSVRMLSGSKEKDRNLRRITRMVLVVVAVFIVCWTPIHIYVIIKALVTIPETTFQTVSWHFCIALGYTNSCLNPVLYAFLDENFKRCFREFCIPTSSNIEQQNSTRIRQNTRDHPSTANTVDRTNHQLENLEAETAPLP
structure (smiles),measurement,setting,value
"CC[C@@H]1CN2CC[C@@]3(O)C(=Nc4cccc(OC)c43)[C@@H]2C[C@@H]1/C(=C\OC)C(=O)OC [7-hydroxymitragynine, (αE,2S,3S,7aS,12bS)-3-ethyl-1,2,3,4,6,7,7a,12b-octahydro-7a-hydroxy-8-methoxy-α-(methoxymethylene)-indolo [2,3-a]quinolizine-2-acetic acid methyl ester]",gastrointestinal transit,[1],caused an inhibition
same,agonism at μ-subtype opioid receptor,[2],selective and full agonists
same,analgesic potency relative to morphine,[3],several times more potent analgesic than morphine
"COc1cccc(C2(O)CCCCC2CN(C)C)c1 (stereo not shown) [Tramadol, tramadol]",onset of pain relief,[4],within an hour
"CC[C@@H]1CN2CCc3c([nH]c4cccc(OC)c34)[C@@H]2C[C@@H]1/C(=C\OC)C(=O)OC [mitragynine, (αE,2S,3S,12bS)-3-ethyl-1,2,3,4,6,7,12,12b-octahydro-8-methoxy-α-(methoxymethylene)-indolo[2,3-a]quinolizine-2-acetic acid methyl ester]",total drug release in dissolution,simulated gastric fluid (SGF),higher
same,total drug release in dissolution,simulated intestinal fluid (SIF),prolonged and incomplete
same,urine excretion of unchanged form,[5]; 24-hour period,0.14%
same,apparent volume of distribution,[5]; [16],38.04 ± 24.32 L/kg
same,terminal half-life,[5]; [16],23.24 ± 16.07 h
same,time to reach the maximum plasma concentration,[5]; [16],0.83 ± 0.35 h
same,toxicity,[6],no toxicity
same,lethality,[7],lethal effects
same,stability in acid,[8]; acidic environments,acid labile
same,water solubility,[8]; water,< 100 µg/mL
same,solubility,[8]; water and basic media,poor solubility in water and basic media
same,mortalities following consumption alone,[9],no reports of mortalities
same,"nerve conduction, amplitude and duration of compound nerve action potential",[10],blocked
same,logP,[11],1.73
same,skeletal muscle relaxation,[12],produced skeletal muscle relaxation
same,agonism at μ-subtype opioid receptor,[2],selective and full agonists
same,2-deoxy-D-glucose-stimulated gastric acid secretion,"[13]; administration into fourth ventricle of anesthetized rats, reversed by naloxone",inhibition
same,basal gastric acid secretion,[13]; administration into the lateral ventricle,did not alter
same,antinociceptive effect,[14],comparable to those of codeine
same,cough-suppressant effect,[14],comparable to those of codeine
same,pKa,[15],8.08±0.04
